Each block holds one compound with its values, some of them ahead of it.
How the values were obtained:
[1] = Sublingual resveratrol: plasma resveratrol levels (Cmax, AUC) in rats, LC-MS/MS (Example 7); assay type: in vivo; details: sublingual 10 mg in oil formulation (CSSR6d) versus oral 10 mg in sugar syrup, SD rats, up to 24 hours
Experimental: Resveratrol was suspended in 50% sugar solution and the mixture spun until homogenous for oral ingestion. Two groups of each three SD rats were treated. The treatment groups were administered as follows: 1) sublingual resveratrol in oil formulation (Group 1: SL-resveratrol 10 mg in oil formulation); 2) oral administered resveratrol in sugar syrup (Group 2: OP resveratrol 10 mg in sugar syrup). Nine blood sampling time points up to 24 hours post dosing per anima […]. Plasma samples bio analysis was performed with LC-MS/MS method.

diabetic mice [2] = assay: Sublingual insulin aspart study: blood glucose in diabetic mice (Example 1); assay type: in vivo, mice (strain C57/BL6); details: sublingual 100 U/kg insulin aspart in TPMCEu oil, without exenatide, versus SC insulin aspart 1 IU/kg
Experimental: For the experiments described below, mice of approximately 60 g were used. 5 μL of the resulting oil mixture comprising Insulin Aspart was placed underneath the tongue of anesthetised diabetic mice. […] Five groups of five mice were treated. […] These were compared to 4) 1 IU/kg subcutaneously administered insulin aspart (SC-Insulin aspart) and 5) sublingual oil placebo ([…]).

diabetic mice [3] = assay: Sublingual insulin glargine study, solid dosage formulation: blood glucose in diabetic mice (Example 2); assay type: in vivo, mice (strain C57/BL6); details: sublingual insulin glargine 10 or 50 IU/kg absorbed on solid dosage formulation, versus SC insulin glargine 1 IU/kg
Experimental: One solid dosage formulation was placed underneath the tongue of anesthetised diabetic mice. Blood glucose was measured at 0 h, 1 h, 2 h, 4 h, 8 h, 20 h and 24 h.
Four groups of five mice were treated. The treatment groups were administered as follows: 1) sublingual solid dosage formulation placebo (Group 1: SL-CSSR 4; wherein “CSSR-4” means a solid formulation containing vitamin E, PEG 200 and flavouring oils). 2) 1 IU/kg subcutaneously administered insulin glargine (Group 2: SC-Insulin glargine 1 IU/kg); 3) 10 IU/kg sublingually administered insulin glargine (Group 3: SL-Insulin glargine 10 IU/kg); and 4) 50 IU/kg sublingually administered insulin glargine (Group 4: SL-Insulin glargine 50 IU/kg). For animal studies using solid formulations, tablets were dissolved in water to form a gel. The gel was then placed under the tongue of the mice instead of the tablet.

Absorbability relative to orally administered resveratrol (Cmax and AUC of blood resveratrol levels) [1]: 20 to 40 times
Compound: Oc1ccc(C=Cc2cc(O)cc(O)c2)cc1 [resveratrol]

Compound: insulin aspart
Blood glucose levels / AUC0-240min, compared with subcutaneous delivery (diabetic mice [2]): comparable to subcutaneous delivery of insulin aspart

Compound: insulin glargine
Blood glucose levels 0-24 h, compared with subcutaneous delivery (diabetic mice [3]): comparable to subcutaneous delivery of insulin glargine

Source: patent US20190388513A1, “OIL BASED FORMULATIONS FOR SUBLINGUAL AND BUCCAL DELIVERY” (BIOLINGUS IP LLC, priority 2017, published 2019)
